Source: patent publication US20250230171A1 (MOMA Therapeutics, Inc., priority 2023, published 2025)
Like-named read-outs stand apart in the source and are kept apart here.

What was measured:
DLD1 BRCA2 (−/−) cells = assay: 7-day cell viability assay (CellTiter-Glo), DLD1 BRCA2 (−/−); assay type: cell-based, human; settings: 7-day CellTiter-Glo, n=2, read-out: Viability IC50 (uM) DLD1 BRCA2 null
Description: (§1) Cell lines DLD1 WT and DLD1 BRCA2 (−/−) (Horizon Discovery Cat No. HD PAR-008 and HD-105-007) were plated in 384-well culture plates at seeding densities of 100cells/50 ul/well and 200 cells/50 uL/well respectively. The seeding densities are pre-determined from the growth curve kinetics performed to ensure log linear phase of cell growth for these 2 cell lines. These assay plates are then placed in the incubator at 37° C., 5% CO2, relative humidity >90% for a few hours before addition of test compounds. Compounds are dispensed using the Tecan HPD300 or Echo based on the plate map in the appropriate wells of the 384-well plates. The cells are treated with nine-point dose response with 3-fold serial dilutions of test compounds starting at 10 uM top concentration. After addition of the test compounds, the plates are incubated at 37° C., 5% CO2, relative humidity >90% for 7 days. CellTiter-Glo (Promega Cat. No. G7573), ATP detection reagent is prepared according to manufacturer's specifications. Cell assay plates are removed from incubator and bring to room temperature (RT) by letting them sit at bench top for at least 15 min. Using the MultiDrop liquid handler or a multichannel pipette, 35 μL/well of CTG is added and the plates are then placed shakes for 5 seconds, RT.

DLD1 WT cells = assay: 7-day cell viability assay (CellTiter-Glo), DLD1 parental (WT); assay type: cell-based, human; settings: 7-day CellTiter-Glo, n=2
Description: as §1

| Compound | IC50 (DLD1 BRCA2 (−/−) cells; Homo sapiens, DLD-1, 168 h) [µM] | IC50 (DLD1 WT cells; Homo sapiens, DLD-1, 168 h) [µM] | IC50 (DLD1 BRCA2 (−/−) cells) [µM] | IC50 (DLD1 WT cells) [µM] |
| --- | --- | --- | --- | --- |
| COc1cnc(Cl)cc1-c1cc(C)ncc1C(=O)Nc1nc2c(s1)CN(C(=O)c1nc(C)c(C(F)F)c(C)c1Cl)C2 [Example 1020, 2′-chloro-N-(5-(3-chloro-5-(difluoromethyl)-4,6-dimethylpicolinoyl)-5,6-dihydro-4H-pyrrolo[3,4-d]thiazol-2-yl)-5′-methoxy-6-methyl-[4,4′-bipyridine]-3-carboxamide] | 0.001 to 0.1 | ≥ 10 |  |  |
| COc1cnc(Cl)cc1-c1cc(C)ncc1C(=O)Nc1nc2c(s1)CN(C(=O)c1cc(C)c(C(F)(F)F)nc1C)C2 | 0.001 to 0.1 | ≥ 10 |  |  |
| COc1cnc(Cl)cc1-c1cc(C)ncc1C(=O)Nc1nc2c(s1)CN(C(=O)c1ccn3nccc3n1)C2 | 0.001 to 0.1 | ≥ 10 |  |  |
| 2′-Chloro-N-(5-(5,6-dimethylpyrazine-2-carbonyl)-5,6-dihydro-4H-pyrrolo[3,4-d]thiazol-2-yl)-5′-methoxy-6-methyl-[4,4′-bipyridine]-3-carboxamide [Example 410] |  |  | 0.001 to 0.1 | ≥ 10 |
| COc1cnc(Cl)cc1-c1cc(C)ncc1C(=O)Nc1nc2c(s1)CN(C(=O)c1cc(Cl)cnc1C)C2 | 0.001 to 0.1 | ≥ 10 |  |  |
| COc1cnc(Cl)cc1-c1cc(C)ncc1C(=O)Nc1nc2c(s1)CN(C(=O)c1ccc(C(F)F)nc1C)C2 [Example 947, 2′-chloro-N-(5-(6-(difluoromethyl)-2-methylnicotinoyl)-5,6-dihydro-4H-pyrrolo[3,4-d]thiazol-2-yl)-5′-methoxy-6-methyl-[4,4′-bipyridine]-3-carboxamide] | 0.001 to 0.1 | ≥ 10 |  |  |
| COc1nnc(Cl)cc1-c1cc(C)ncc1C(=O)Nc1nc2c(s1)CN(C(=O)c1ccc(C#N)c(C)n1)C2 [Example 981, 4-(6-chloro-3-methoxypyridazin-4-yl)-N-(5-(5-cyano-6-methylpicolinoyl)-5,6-dihydro-4H-pyrrolo[3,4-d]thiazol-2-yl)-6-methylnicotinamide] | 0.001 to 0.1 | ≥ 10 |  |  |
| 2′-chloro-N-(5-(3-chloro-5-(1,1-difluoroethyl)picolinoyl)-5,6-dihydro-4H-pyrrolo[3,4-d]thiazol-2-yl)-5′-methoxy-6-methyl-[4,4′-bipyridine]-3-carboxamide [Example 625] |  |  | 0.1 to 0.25 | ≥ 10 |
| COc1cnc(Cl)cc1-c1cc(C)ncc1C(=O)Nc1nc2c(s1)CN(C(=O)c1nc(C)c(C(F)(F)F)cc1F)C2 [Example 1014, 2′-chloro-N-(5-(3-fluoro-6-methyl-5-(trifluoromethyl)picolinoyl)-5,6-dihydro-4H-pyrrolo[3,4-d]thiazol-2-yl)-5′-methoxy-6-methyl-[4,4′-bipyridine]-3-carboxamide] | 0.001 to 0.1 | ≥ 10 |  |  |
| COc1cnc(Cl)cc1-c1cc(C)ncc1C(=O)Nc1nc2c(s1)CN(C(=O)[C@H]1CC[C@H](C(F)F)CC1)C2 [Example 908, 2′-chloro-N-(5-((1r,4r)-4-(difluoromethyl)cyclohexane-1-carbonyl)-5,6-dihydro-4H-pyrrolo[3,4-d]thiazol-2-yl)-5′-methoxy-6-methyl-[4,4′-bipyridine]-3-carboxamide] | 0.001 to 0.1 | ≥ 10 |  |  |
| COc1cnc(Cl)cc1-c1cc(C)ncc1C(=O)Nc1nc2c(s1)CN(C(=O)[C@H]1CC[C@@H](C(F)F)CC1)C2 [Example 909, 2′-chloro-N-(5-((1s,4s)-4-(difluoromethyl)cyclohexane-1-carbonyl)-5,6-dihydro-4H-pyrrolo[3,4-d]thiazol-2-yl)-5′-methoxy-6-methyl-[4,4′-bipyridine]-3-carboxamide] | 0.001 to 0.1 | ≥ 10 |  |  |
| COc1cnc(Cl)cc1-c1cc(C)ncc1C(=O)Nc1nc2c(s1)CN(C(=O)c1cc(C)c(C(F)(F)F)nc1OC)C2 [Example 989, 2′-chloro-5′-methoxy-N-(5-(2-methoxy-5-methyl-6-(trifluoromethyl)nicotinoyl)-5,6-dihydro-4H-pyrrolo[3,4-d]thiazol-2-yl)-6-methyl-[4,4′-bipyridine]-3-carboxamide] | 0.001 to 0.1 | ≥ 10 |  |  |
| COc1cnc(Cl)cc1-c1cc(C)ncc1C(=O)Nc1nc2c(s1)CN(C(=O)c1ccc(OC(F)(F)F)nc1C)C2 [Example 1018, 2′-chloro-5′-methoxy-6-methyl-N-(5-(2-methyl-6-(trifluoromethoxy)nicotinoyl)-5,6-dihydro-4H-pyrrolo[3,4-d]thiazol-2-yl)-[4,4′-bipyridine]-3-carboxamide] | 0.001 to 0.1 | ≥ 10 |  |  |
| COc1cnc(Cl)cc1-c1cc(C)ncc1C(=O)Nc1nc2c(s1)CN(C(=O)c1cnc(OC(F)(F)F)cc1C)C2 [Example 1009, 2′-chloro-5′-methoxy-6-methyl-N-(5-(4-methyl-6-(trifluoromethoxy)nicotinoyl)-5,6-dihydro-4H-pyrrolo[3,4-d]thiazol-2-yl)-[4,4′-bipyridine]-3-carboxamide] | 0.001 to 0.1 | ≥ 10 |  |  |
